“And” between values parts separate entries of the source, which are not always exact repeats. Identical values can stand only once. Like-named read-outs stand apart in the source and are kept apart here.
What was measured:
[1] = test system: A549 (lung adenocarcinoma); test: WST-1 cell viability analysis, A549; type: cell-based; settings: Homo sapiens
Procedure: (§1) The cell numbers were counted and reseed as 2×10^6 in cell culture plate/flask. Then, the culture medium were added to a volume of 10 ml, and the cells were cultured for 2-3 days. Then, the cells were suspended for loading into 96-well plates. The number of cells was 3000 and the volume of the culture medium was 100 μl each well.
(§2) Removing the original culture medium from 96-well plate. Then add 100 μl of commercially drug at a concentration of 10 μM per well. After 72 hours, add the diluted WST-1 reagent to the well with 100 μl/well, and the diluted WST-1 reagent was acquired from the dilution of 9:1 medium and WST-1 stock reagent. Finally, the total volume of each well was 200 μl/well. Culture the 96-well plate at 37° C. for 30 to 90 minutes. Detecting and calculate the survival rate of each cancer cells with an ELISA reader at OD450 nm.

cervical cancer cells = test: Summary of cell viability, cervical cancer; type: cell-based; settings: 72 hours, summary for cervical cancer, read-out: Inhibitory effect, cervical cancer
Procedure: as §1, §2
(§3) As a result in the experiments of the present invention.

[2] = test system: gastric cancer cells (AGS); test: Animal model test, subcutaneous tumor in nude mice; type: in vivo, female mice (BALB/cAnN.Cg-Foxn1^nu/CrlNarl); settings: for tumor volume growth, average / tumor volume, average: average of mice; for tumor longest length / tumor volume / tumor volume growth / tumor width: single mice A-C
Procedure: Animal Model Test of […] with Dose 100 mg/kg/Day and 200 mg/kg/day
(§4) In this invention, the female mice were (BALB/cAnN.Cg-Foxn1^nu/CrlNarl) purchased from National Laboratory Animal Center (Taiwan)). The weight of the mice were 21±1 g. These mice were subcutaneously injected with gastric cancer cells (AGS) and then put these mice into different cages at random. The drug test experiment was divided into three groups, include “normal control group”, “low dose group (100 mg/kg/day)”, and “high dose group (200 mg/kg/day)”. These mice were then injected test drug intraperitoneally once daily […]. The tumor sizes and body weight were measured twice a week. The tumor sizes were measured and calculated by formula: (L×W^2)/2. L represents the tumor longest length. W represents the tumor shortest diameter.

[3] = test system: breast cancer cell line MCF7; test: WST-1 cell viability analysis, MCF7; type: cell-based; settings: Homo sapiens, MCF7, 10 μM, 72 hours, read-out: viability (survival rate) of MCF7 cells
Procedure: as §1, §2

cancers cell lines = test: Inhibition test on all kinds of cancer cell lines (overall statement); type: cell-based; settings: several / various cancer cell lines, Table 18, FIG. 1
Procedure: as §1, §2, §3

bladder cancer cells = test: Summary of cell viability, bladder cancer; type: cell-based; settings: 72 hours, summary over the bladder cancer cell lines, read-out: Inhibitory effect, bladder cancer
Procedure: as §1, §2, §3

[4] = test system: colorectal cancer cell line HCT116-wt; test: WST-1 cell viability analysis, HCT116-wt; type: cell-based; settings: 72 hours, read-out: viability (survival rate) of HCT116-wt cells
Procedure: as §1, §2

[5] = test system: osteosarcoma cell line U2OS; test: WST-1 cell viability analysis, U2OS; type: cell-based; settings: Homo sapiens
Procedure: as §1, §2

[6] = test system: ovarian cancer cell line NIH-OVCAR-3; test: WST-1 cell viability analysis, NIH-OVCAR-3; type: cell-based; settings: Homo sapiens, OVCAR-3, 10 μM, 72 hours, read-out: viability (survival rate) of NIH-OVCAR-3 cells
[7] = test system: AGS (Gastric Adenocarcinoma); test: WST-1 cell viability analysis, AGS; type: cell-based; settings: Homo sapiens
Procedure: as §1, §2

gastric cancer cells = test: Summary of cell viability, gastric cancer; type: cell-based; settings: 72 hours, summary over the gastric cancer cell lines, read-out: Inhibitory effect, gastric cancer
Procedure: as §1, §2, §3

[8] = Animal model test, body weight and health status of mice; type: in vivo, female mice (BALB/cAnN.Cg-Foxn1^nu/CrlNarl); settings: for weight: single mice A-C
Procedure: as §4

[9] = high dose (200 mg/kg/day) i.p., Fifth measurement
[10] = high dose (200 mg/kg/day) i.p., First measurement
[11] = high dose (200 mg/kg/day) i.p., First measurement, 200 mg/kg/day
[12] = high dose (200 mg/kg/day) i.p., Fourth measurement
[13] = high dose (200 mg/kg/day) i.p., Second measurement
[14] = high dose (200 mg/kg/day) i.p., Second measurement, 200 mg/kg/day
[15] = high dose (200 mg/kg/day) i.p., Third measurement
[16] = low dose (100 mg/kg/day) i.p., Fifth measurement
[17] = low dose (100 mg/kg/day) i.p., First measurement
[18] = low dose (100 mg/kg/day) i.p., First measurement, 100 mg/kg/day
[19] = low dose (100 mg/kg/day) i.p., Fourth measurement
[20] = low dose (100 mg/kg/day) i.p., Second measurement
[21] = low dose (100 mg/kg/day) i.p., Second measurement, 100 mg/kg/day
[22] = low dose (100 mg/kg/day) i.p., Third measurement
[23] = low dose (100 mg/kg/day) i.p., Third measurement, 100 mg/kg/day

SMILES: CC1=C(C(=O)OC(C)C)C(c2cccc([N+](=O)[O-])c2)C(C(=O)OC2CN(C(c3ccccc3)c3ccccc3)C2)=C(N)N1 (stereo not shown) [Azelnidipine]
- viability at 10 µM ([1]; A549, 10 μM, 72 hours, run 0524-10 min, read-out: viability (survival rate) of A549 cells): 81.4%
- viability at 10 µM ([1]; A549, 10 μM, 72 hours, run 0526-10 min, read-out: viability (survival rate) of A549 cells): 119%
- viability at 10 µM ([1]; A549, 10 μM, 72 hours, run 0529-10 min, read-out: viability (survival rate) of A549 cells): 69.7%
- viability at 10 µM ([1]; A549, 10 μM, 72 hours, run 0531-10 min, read-out: viability (survival rate) of A549 cells): 80.2%
- viability at 10 µM ([1]; A549, 72 h, 10 μM, average of 4 tests, read-out: Average viability of A549 cells): 87.5%
- viability at 10 µM (cervical cancer cells): 87%
- tumor volume growth, average [2, 9]: 0 mm^3
- tumor volume, average [2, 9]: 0 mm^3
- tumor longest length [2, 9]: 0 mm
- tumor volume [2, 9]: 0 mm^3
- tumor volume growth [2, 9]: 0 mm^3
- tumor width [2, 9]: 0 mm
- tumor volume growth, average [2, 10]: 25.67 mm^3
- tumor volume, average [2, 10]: 25.67 mm^3
- tumor longest length [2, 11]: 4 mm and 6 mm
- tumor volume [2, 11]: 18 mm^3 and 27 mm^3 and 32 mm^3
- tumor volume growth [2, 11]: 18 mm^3 and 27 mm^3 and 32 mm^3
- tumor width [2, 11]: 3 mm and 4 mm
- tumor volume growth, average [2, 12]: −50 mm^3
- tumor volume, average [2, 12]: 0 mm^3
- tumor longest length [2, 12]: 0 mm
- tumor volume [2, 12]: 0 mm^3
- tumor width [2, 12]: 0 mm
- tumor volume growth, average [2, 13]: 57.67 mm^3
- tumor volume, average [2, 13]: 83.33 mm^3
- tumor width [2, 13]: 5 mm
- tumor longest length [2, 14]: 7 mm and 6 mm
- tumor volume [2, 14]: 87.5 mm^3 and 75 mm^3
- tumor volume growth [2, 14]: 69.5 mm^3 and 48 mm^3 and 55.5 mm^3
- tumor volume growth, average [2, 15]: −33.3333 mm^3
- tumor volume, average [2, 15]: 50 mm^3
- inhibition of tumor growth, high dose compared with low dose (in words) ([2]; high dose, FIG. 3): better effect to inhibit tumor growth
- tumor volume growth, average [2, 16]: 2.667 mm^3
- tumor volume, average [2, 16]: 22 mm^3
- tumor volume growth, average [2, 17]: 176.3333 mm^3
- tumor volume, average [2, 17]: 176.3333 mm^3
- tumor longest length [2, 18]: 8 mm and 6 mm and 7 mm
- tumor width [2, 18]: 8 mm and 7 mm and 6 mm
- tumor volume growth, average [2, 19]: −88 mm^3
- tumor volume, average [2, 19]: 19.33 mm^3
- tumor volume growth, average [2, 20]: −77.5 mm^3
- tumor volume, average [2, 20]: 98.83 mm^3
- tumor longest length [2, 21]: 7 mm and 6 mm and 5 mm
- tumor width [2, 21]: 6 mm and 5 mm
- tumor volume growth, average [2, 22]: 0 mm^3
- tumor volume, average [2, 22]: 98.83 mm^3
- tumor volume growth [2, 22]: 0 mm^3
- tumor longest length [2, 23]: 7 mm and 6 mm and 5 mm
- tumor width [2, 23]: 6 mm and 5 mm
- inhibition effect on tumor cells (in words) ([2]; low dose and high dose, FIG. 2): significant inhibition effect
- tumor volume (in words) ([2]; low dose and high dose, FIG. 3): reduce the tumor volume
- tumor volume growth (in words) ([2]; low dose and high dose, FIG. 3): effectively slow down the tumor volume growth
- viability at 10 µM ([3]; run 0612-10 min): 48.6%
- viability at 10 µM ([3]; run 0614-10 min): 46.6%
- viability at 10 µM ([3]; run 0616-10 min): 68.2%
- viability at 10 µM ([3]; run 0619-10 min): 79.9%
- inhibitory effect on cancer cell lines (in words) (cancers cell lines): significant inhibitory effect
- viability at 10 µM (bladder cancer cells): 97.3%
- viability at 10 µM ([4]; run 0602-30 min): 70.7%
- viability at 10 µM ([4]; run 0605-10 min): 146%
- viability at 10 µM ([4]; run 0607-10 min): 159%
- viability at 10 µM ([4]; run 0609-10 min): 69.3%
- viability at 10 µM ([5]; 72 h, summary (U2OS), read-out: Inhibitory effect, osteosarcoma): 69.4%
- viability at 10 µM ([5]; 72 hours, run 6-26-10 min, read-out: viability (survival rate) of U2OS cells): 53.3%
- viability at 10 µM ([5]; 72 hours, run 6-28-10 min, read-out: viability (survival rate) of U2OS cells): 78.3%
- viability at 10 µM ([5]; 72 hours, run 6-30-10 min, read-out: viability (survival rate) of U2OS cells): 84.8%
- viability at 10 µM ([5]; 72 hours, run 7-3-10 min, read-out: viability (survival rate) of U2OS cells): 61.2%
- viability at 10 µM ([6]; run 7-3-30 min): 106%
- viability at 10 µM ([6]; run 7-4-30 min (fourth column)): 104%
- viability at 10 µM ([6]; run 7-4-30 min (second column)): 99.1%
- viability at 10 µM ([7]; 72 h, average of 4 tests, read-out: average viability of AGS cells): 90.2%
- viability at 10 µM ([7]; 72 hours, run 0510-10 min, read-out: viability (survival rate) of AGS cells): 120%
- viability at 10 µM ([7]; 72 hours, run 0512-10 min, read-out: viability (survival rate) of AGS cells): 124%
- viability at 10 µM ([7]; 72 hours, run 0515-10 min, read-out: viability (survival rate) of AGS cells): 42.1%
- viability at 10 µM ([7]; 72 hours, run 0517-10 min, read-out: viability (survival rate) of AGS cells): 74.3%
- viability at 10 µM (gastric cancer cells): 115%
- health status / death of tested mice during the treatment (in words) ([8]; both high and low doses): without death
- weight ([8]; high dose (200 mg/kg/day) i.p., Fifth measurement, 200 mg/kg/day): 20 g and 21 g
- weight [8, 11]: 20 g and 19.5 g
- weight ([8]; high dose (200 mg/kg/day) i.p., Fourth measurement, 200 mg/kg/day): 20 g and 21 g
- weight [8, 14]: 19 g and 20 g
- weight ([8]; high dose (200 mg/kg/day) i.p., Third measurement, 200 mg/kg/day): 20.5 g and 19 g and 20 g
- weight ([8]; low dose (100 mg/kg/day) i.p., Fifth measurement, 100 mg/kg/day): 20 g and 21 g
- weight [8, 17]: 21 g
- weight ([8]; low dose (100 mg/kg/day) i.p., Fourth measurement, 100 mg/kg/day): 20 g and 21 g
- weight [8, 21]: 20 g and 19 g
- weight [8, 23]: 19.5 g and 19 g and 18.5 g
- weight of mice during the experiment (in words) ([8]; low dose and high dose): did not show a significant decrease

Reference: patent publication US20170312260A1 (LAUNX BIOMEDICAL CO., LTD., priority 2014, published 2017)
